System: HBV
Test: HBV replication inhibition assay (BDNA assay)
Type: cell-based
Conditions: Hepatitis B virus, HepG2.2.15, 144 h, HepG2.2.15 cells, incubated with compound for 6 days, encapsidated HBV DNA from supernatant detected by branched DNA QuantiGene assay
Method: HBV replication inhibition by the disclosed compounds were determined in cells infected or transfected with HBV or cells with stably integrated HBV, such as HepG2.2.15 cells (Sells et al. 1987). In this example, HepG2.2.15 cells were maintained in cell culture medium containing 10% fetal bovine serum (FBS), Geneticin, L-glutamine, penicillin and streptomycin. HepG2.2.15 cells were seeded in 96-well plates at a density of 40,000 cells/well and were treated with serially diluted compounds at a final DMSO concentration of 0.5% either alone or in combination by adding drugs in a checker box format. Cells were incubated with compounds for three days, after which medium was removed and fresh medium containing compounds was added to cells and incubated for another three days. At day 6, supernatant was removed and treated with DNase at 37° C. for 60 minutes, followed by enzyme inactivation at 75° C. for 15 minutes. Encapsidated HBV DNA was released from the virions and covalently linked HBV polymerase by incubating in lysis buffer (Affymetrix QS0010) containing 2.5 μg proteinase K at 50° C. for 40 minutes. HBV DNA was denatured by addition of 0.2 M NaOH and detected using a branched DNA (BDNA) QuantiGene assay kit according to manufacturer recommendation (Affymetrix). HBV DNA levels were also quantified using qPCR, based on amplification of encapsidated HBV DNA extraction with QuickExtraction Solution (Epicentre Biotechnologies) and amplification of HBV DNA using HBV specific PCR probes that can hybridize to HBV DNA and a fluorescently labeled probe for quantitation. In addition, cell viability of HepG2.2.15 cells incubated with test compounds alone or in combination was determined by using CellTitre-Glo reagent according to the manufacturer protocol (Promega). The mean background signal from wells containing only culture medium was subtracted from all other samples, and percent inhibition at each compound concentration was calculated by normalizing to signals from HepG2.2.15 cells treated with 0.5% DMSO using equation E1.
where DMSOave is the mean signal calculated from the wells that were treated with DMSO control (0% inhibition control) and Xi is the signal measured from the individual wells. EC50 values, effective concentrations that achieved 50% inhibitory effect, were determined by non-linear fitting using Graphpad Prism software (San Diego, Calif.) and equation E2.
where Y represents percent inhibition values and X represents the logarithm of compound concentrations.
Selected disclosed compounds were assayed in the HBV replication assay (BDNA assay), as described above, and a representative group of these active compounds is shown in Table 3.

Going from `N#Cc1cc(NC(=O)N2CCc3nn4c(c3C2)-c2nnccc2CCC4)ccc1F` [Example 24, N-(3-Cyano-4-fluorophenyl)-6,7,10,11-tetrahydro-5H-pyridazino[3,4-c]pyrido[4′,3′:3,4]pyrazolo[1,5-a]azepine-12(13H)-carboxamide] to `N#Cc1cc(NC(=O)N2CCc3nn4c(c3C2)-c2ncccc2CCC4)ccc1F` [Example 27, N-(3-Cyano-4-fluorophenyl)-6,7,10,11-tetrahydro-5H-pyrido[2,3-c]pyrido[4′,3′:3,4]pyrazolo[1,5-a]azepine-12(13H)-carboxamide], the EC50 falls from 910 nM to 170 nM (5.4-fold). The second is the more potent here.

`O=C(Nc1ccc(F)c(Cl)c1)N1CCc2nn3c(c2C1)-c1n[nH]cc1CCC3` [Example 25, N-(3-Chloro-4-fluorophenyl)-4,5,6,9,10,12-hexahydropyrazolo[3,4-c]pyrido[4′,3′:3,4]pyrazolo[1,5-a]azepine-11(2H)-carboxamide] and `N#Cc1cc(NC(=O)N2CCc3nn4c(c3C2)-c2n[nH]cc2CCC4)ccc1F` [Example 26, N-(3-Cyano-4-fluorophenyl)-4,5,6,9,10,12-hexahydropyrazolo[3,4-c]pyrido[4′,3′:3,4]pyrazolo[1,5-a]azepine-11(2H)-carboxamide] are within 1.5-fold of each other in EC50: 28 nM for the first, 23 nM for the second.

First: O=C(Nc1ccc(F)c(C(F)(F)F)c1)N1CCc2nn3c(c2C1)-c1ncccc1CCC3 [Example 28, N-(4-Fluoro-3-(trifluoromethyl)phenyl)-6,7,10,11-tetrahydro-5H-pyrido[2,3-c]pyrido[4′,3′:3,4]pyrazolo[1,5-a]azepine-12(13H)-carboxamide]
Second: O=C(Nc1ccc(F)c(Cl)c1)N1CCc2nn3c(c2C1)-c1nocc1CCC3 [Example 31, N-(3-Chloro-4-fluorophenyl)-5,6,9,10-tetrahydro-4H-isoxazolo[3,4-c]pyrido[4′,3′:3,4]pyrazolo[1,5-a]azepine-11(12H)-carboxamide]
The EC50 of the first is 200-fold higher: 1800 nM for the first, 9 nM for the second.

`Cn1cc2c(n1)-c1c3c(nn1CCC2)CCN(C(=O)Nc1ccc(F)c(Cl)c1)C3` [Example 29, N-(3-Chloro-4-fluorophenyl)-2-methyl-4,5,6,9,10,12-hexahydropyrazolo[3,4-c]pyrido[4′,3′:3,4]pyrazolo[1,5-a]azepine-11(2H)-carboxamide] and `Cn1ncc2c1-c1c3c(nn1CCC2)CCN(C(=O)Nc1ccc(F)c(Cl)c1)C3` [Example 30, N-(3-Chloro-4-fluorophenyl)-1-methyl-4,5,6,9,10,12-hexahydropyrazolo[3,4-c]pyrido[4′3′:3,4]pyrazolo[1,5-a]azepine-11(1H)-carboxamide] are within 1.5-fold of each other in EC50: 3100 nM for the first, 3400 nM for the second.

First: O=C(Nc1ccc(F)c(Cl)c1)N1CCc2nn3c(c2C1)-c1oncc1CCC3 [Example 32, N-(3-Chloro-4-fluorophenyl)-5,6,9,10-tetrahydro-4H-isoxazolo[5,4-c]pyrido[4′,3′:3,4]pyrazolo[1,5-a]azepine-11(12H)-carboxamide]
Second: N#Cc1cc(NC(=O)N2CCn3nc4c(c3C2)-c2oncc2CCC4)ccc1F [Example 33, N-(3-Cyano-4-fluorophenyl)-5,6,9,10-tetrahydro-4H-isoxazolo[5″,4″:3′,4′]-cyclohepta[1′,2′:3,4]pyrazolo[1,5-a]pyrazine-11(12H)-carboxamide]
The EC50 of the first is 66-fold lower: 12 nM for the first, 790 nM for the second.

Compared with `O=C(Nc1ccc(F)c(C(F)(F)F)c1)N1CCn2nc3c(c2C1)-c1oncc1CCC3` [Example 34], `O=C(Nc1ccc(F)c(C(F)(F)F)c1)N1CCn2nc3c(c2C1)-c1nocc1CCC3` [Example 36, N-(4-Fluoro-3-(trifluoromethyl)phenyl)-5,6,9,10-tetrahydro-4H-isoxazolo[3″,4″:3′,4′]cyclohepta[1′,2′:3,4]pyrazolo[1,5-a]pyrazine-11(12H)-carboxamide] is 2.4-fold lower in EC50: 440 nM for the first, 180 nM for the second. The second is the more potent here.

`N#Cc1cc(NC(=O)N2CCn3nc4c(c3C2)-c2nocc2CCC4)ccc1F` [Example 35, N-(3-Cyano-4-fluorophenyl)-5,6,9,10-tetrahydro-4H-isoxazolo[3″,4″:3′,4′]-cyclohepta[1′,2′:3,4]pyrazolo[1,5-a]pyrazine-11(12H)-carboxamide] was tested, and the EC50 was 170 nM.

Source: patent publication US20220153754A1 (JANSSEN SCIENCES IRELAND UNLIMITED COMPANY, priority 2019, published 2022)
